One assay deals with MEF Ogg1 (−/−). In words: Cell viability assay (resazurin). The assay is classed as cell-based. The conditions noted are these: 120 h, Normal, mouse embryonic fibroblast, five day incubation. As to the method:
A dilution series of compound or vehicle are transferred to 96-well plates. Cells are seeded into the plate (500-10,000 cells/well) in suitable media and incubated for five days in 5% CO2 at 37° C.
The compounds to be tested are nano-dispensed in duplicate in 11 concentrations, directly in 384-well cell plates, with a final DMSO concentration<1%.

In the next assay the test system is SW480. The experiment in a line: Cell viability assay (resazurin). It is filed as cell-based. The conditions noted are these: Homo sapiens, 120 h, Cancer, Colorectal Adenocarcinoma, five day incubation. How it is done: (§1) A dilution series of compound or vehicle are transferred to 96-well plates. Cells are seeded into the plate (500-10,000 cells/well) in suitable media and incubated for five days in 5% CO2 at 37° C. Thereafter, resazurin (diluted in suitable medium or PBS) are added to a final concentration 10 μg/ml resazurin at 37° C. for 2-4 hours before measuring the fluorescence (Ex544/Em590), essentially as described (Riss, Terry L. et al., “Cell Viability Assays.” In Assay Guidance Manual, ed. G. Sitta Sittampalam, et al. Bethesda (Md.): Eli Lilly & Company and the National Center for Advancing Translational Sciences (2004) http://www.ncbi.nlm.nih.gov/books/NBK144065/).
(§2) The compounds to be tested are nano-dispensed in duplicate in 11 concentrations, directly in 384-well cell plates, with a final DMSO concentration<1%. Cells are seeded in cell plates, pre-dispensed with compounds (200-2500 cells/well in 50 μl). After three or five days culture in 5% CO2, 37° C., resazurin diluted in PBS is added, 10 μl/well, to a final concentration of 10 μg/ml and cells are incubated 2-4 hours before measuring fluorescence (Ex544/Em590), as described (ibid.). Results obtained for selected example compounds described herein on cancer- and non-transformed cell lines are provided in the table below (Table 3) and summarized in FIG. 1. Where indicated, combination indexes was measured with CompuSyn software (www.compusyn.com) by the method of Chou-Talalay (Chou, Ting-Chao., Cancer Research, 70(2), 440-46 (2010)).
(In general: Resazurin is reduced to fluorescent resorufin, in cell work by metabolically active cells.)

For another assay, the system named is LCL#1. The experiment in a line: Cell viability assay (resazurin). It is filed as cell-based. The conditions noted are these: 120 h, Normal, Epstein-Barr-virus-transformed lymphoblastoid cell lines, five day incubation. How it is done: as §1, §2
In the next assay the test system is HCT116 + Chr3. The experiment in a line: Cell viability assay (resazurin). The assay is classed as cell-based. To be noted: Homo sapiens, HCT-116, 120 h, Cancer, Colorectal Carcinoma, five day incubation. As to the method: as §1, §2
The test system of the next assay is MRC5. In words: Cell viability assay (resazurin). To be noted: Homo sapiens, 120 h, Normal, fetal lung fibroblast, five day incubation. The assay is classed as cell-based. How it is done:
as §1, §2

In the next assay the test system is HeLa. In words: Cell viability assay (resazurin). It is filed as cell-based. The conditions noted are these: Homo sapiens, 120 h, Cancer, Cervical adenocarcinoma, five day incubation. As to the method:
as §1, §2

For another assay, the system named is Daudi. In words: Cell viability assay (resazurin). The assay is classed as cell-based. To be noted: Homo sapiens, 120 h, Cancer, Burkitt's Lymphoma, five day incubation. How it is done:
as §1, §2

The subject of another assay is A3. The experiment in a line: Cell viability assay (resazurin). The assay is classed as cell-based. The conditions noted are these: 120 h, Cancer, Acute lymphoblastic leukemia, five day incubation. As to the method:
as §1, §2

The subject of a further assay is MLE12 cells. The experiment in a line: Cell viability assay in MLE12 cells (resazurin). It is filed as cell-based, mouse. The conditions noted are these: Mus musculus, MLE12, 24 h, TNF-α 20 ng/ml, resazurin added after 24 hours culture. Summed up:
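MLE12 cells (7500 cells/well) were seeded onto 11-point duplicate compound dose-responses, with TNF-α (final 20 ng/ml) added after 1 hour at 37° C. After 24 hours, resazurin was added for 6 hours and resorufin fluorescence read (ex544 nm/em595 nm). EC50 values were calculated by curve fitting.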

Another assay addresses OGG1 (Homo sapiens (Human), UniProt O15527). In words: In vitro OGG1 activity assay. It is filed as biochemical. The conditions noted are these: 800 pM OGG1 enzyme, 2 nM human APEX1, 10 nM 8-oxoA:C substrate. The method, boiled down: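 Fluorescence-release assay on a duplex oligonucleotide carrying an OGG1 substrate base beside a fluorophore, quenched from the complementary strand. Excess APEX1 cleaves the abasic site left by base excision, melting the duplex and unquenching the fluorophore. Compounds in DMSO were dispensed before enzyme and substrate, and fluorescein signal was read.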

The EC50 is the midpoint of the concentration-response curve. Broadly, the IC50 is the concentration needed to halve the response being measured. A low value points to greater potency in that assay.

Chain of OGG1 (O15527 whole entry): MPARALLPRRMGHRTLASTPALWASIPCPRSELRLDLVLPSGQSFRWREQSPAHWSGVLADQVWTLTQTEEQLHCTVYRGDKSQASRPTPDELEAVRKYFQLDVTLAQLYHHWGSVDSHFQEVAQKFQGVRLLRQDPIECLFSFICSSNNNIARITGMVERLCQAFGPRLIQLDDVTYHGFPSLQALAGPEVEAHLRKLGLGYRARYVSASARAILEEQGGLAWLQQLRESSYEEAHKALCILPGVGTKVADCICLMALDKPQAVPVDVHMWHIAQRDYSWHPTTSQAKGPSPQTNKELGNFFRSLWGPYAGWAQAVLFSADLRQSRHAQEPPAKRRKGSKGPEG

On to `Cc1cc(NC(=O)N2CCC(n3c(=O)[nH]c4c(Br)cccc43)CC2)ccc1I` [Example 50, 4-(4-Bromo-2-oxo-2,3-dihydro-1H-1,3-benzodiazol-1-yl)-N-(4-iodo-3-methylphenyl)piperidine-1-carboxamide], for which the EC50 came out at 34 µM with MEF Ogg1 (−/−); 30 µM in the assay with SW480; 40 µM in the assay with LCL#1; 20 µM in the assay on HCT116 + Chr3; 47 µM with MRC5; 35 µM in the assay on HeLa. The EC50 came out at 12 µM with Daudi and 9.8 µM with A3. For the same molecule, the half-inhibitory concentration (IC50) came out at 7.23 µM with MLE12 cells and 0.149 µM at OGG1.
For the molecule `O=C(Nc1ccc(Cl)c(Cl)c1)N1CCC(n2c(=O)[nH]c3c(-c4ccc(CO)nc4)cccc32)CC1` [Example 28, N-(3,4-dichlorophenyl)-4-{4-[6-(hydroxymethyl)pyridin-3-yl]-2-oxo-2,3-dihydro-1H-1,3-benzodiazol-1-yl}piperidine-1-carboxamide], the EC50 in the assay with MEF Ogg1 (−/−) came to 46 µM; in the assay on SW480, 20 µM; in the assay with LCL#1 it was 34 µM; in the assay on HCT116 + Chr3, 17 µM; in the assay on MRC5, 21 µM; with HeLa it was 16 µM. In addition, the results for the EC50 with Daudi and in the assay on A3 were 10 µM and 7.9 µM, respectively. In addition, the IC50 is 7.18 µM with MLE12 cells and 0.766 µM at OGG1.
On to `O=C(Nc1ccc(I)cc1)N1CCC(n2c(=O)[nH]c3c(Br)cccc32)CC1` [Example 13, 4-(4-Bromo-2-oxo-2,3-dihydro-1H-1,3-benzodiazol-1-yl)-N-(4-iodophenyl)piperidine-1-carboxamide], for which the EC50 is 48 µM with MEF Ogg1 (−/−); 33 µM in the assay with SW480; 33 µM with LCL#1; 21 µM in the assay on HCT116 + Chr3; 75 µM in the assay with MRC5; 22 µM in the assay with HeLa. For the same molecule, the EC50 in the assay on Daudi turned out to be 13 µM; in the assay on A3, 11 µM. For the same molecule, the IC50 in the assay with MLE12 cells was found to be 7.67 µM; at OGG1, 0.359 µM.

Source of the values: US11970474B2, “Substituted benzodiazoles and use thereof in therapy” (THOMAS HELLEDAYS STIFTELSE FÖR MEDICINSK FORSKNING, priority 2018, dated 2024).
